Test results from patent US7858652B2, “Substituted 4-imidazoles” (Hoffmann-La Roche Inc., priority 2006, dated 2010).

Molecular target: T1, TAAR1 (Mus musculus, UniProt Q923Y8)
T1 construct: expressed in transfected cells; host or cells: HEK293 cells (ATCC # CRL-1573), stably transfected with pIRESneo2 expression plasmid; membrane preparation
Test: Radioligand binding to TAAR1, membranes of stably transfected HEK293 cells, [3H]-rac-2-(1,2,3,4-tetrahydro-1-naphthyl)-2-imidazoline
Conditions: for Ki: mouse TAAR1, 4° C., 30 minutes incubation, radioligand at 60 nM
Experimental: The Expand High Fidelity PCR System (Roche Diagnostics) was used with 1.5 mM Mg^2+ and purified PCR products were cloned into pCR2.1-TOPO cloning vector (Invitrogen) following the instructions of the manufacturer. PCR products were subcloned into the pIRESneo2 vector (BD Clontech, Palo Alto, Calif.), and expression vectors were sequence verified before introduction in cell lines.
For the generation of stably transfected cell lines, HEK293 cells were transfected with the pIRESneo2 expression plasmids containing the TAAR coding sequences (described above) with Lipofectamine 2000 (Invitrogen) according to the instructions of the manufacturer, and 24 hours post transfection, the culture medium was supplemented with 1 mg/ml G418 (Sigma, Buchs, Switzerland). After a culture period of about 10 days, clones were isolated, expanded and tested for responsiveness to trace amines (all compounds purchased from Sigma) with the cAMP Biotrak Enzyme immunoassay (EIA) System (Amersham) following the non-acetylation EIA procedure provided by the manufacturer.
Cells at confluence were rinsed with ice-cold phosphate buffered saline without Ca^2+ and Mg^2+ containing 10 mM EDTA and pelleted by centrifugation at 1000 rpm for 5 minutes at 4° C. The pellet was then washed twice with ice-cold phosphate buffered saline and the cell pellet was frozen immediately by immersion in liquid nitrogen and stored until use at −80° C. The cell pellet was then suspended in 20 ml HEPES-NaOH (20 mM), pH 7.4 containing 10 mM EDTA, and homogenized with a Polytron (PT 3000, Kinematica) at 10,000 rpm for 10 seconds. The homogenate was centrifuged at 48,000×g for 30 minutes at 4° C. and the pellet resuspended in 20 ml HEPES-NaOH (20 mM), pH 7.4 containing 0.1 mM EDTA (buffer A), and homogenized with a Polytron at 10,000 rpm for 10 seconds. The homogenate was then centrifuged at 48,000×g for 30 minutes at 4° C. and the pellet resuspended in 20 ml buffer A, and homogenized with a Polytron at 10,000 rpm for 10 seconds. Protein concentration was determined by the method of Pierce (Rockford, Ill.). The homogenate was then centrifuged at 48,000×g for 10 minutes at 4° C., resuspended in HEPES-NaOH (20 mM), pH 7.0 including MgCl2 (10 mM) and CaCl2 ([…]) (buffer B) at 200 μg protein per ml and homogenized with a Polytron at 10,000 rpm for 10 seconds.
Binding assay was performed at 4° C. in a final volume of 1 ml, and with an incubation time of 30 minutes. […] Non-specific binding was defined as the amount of [^3H]-rac-2-(1,2,3,4-tetrahydro-1-naphthyl)-2-imidazoline bound in the presence of the appropriate unlabelled ligand (10 μM). Competing ligands were tested in a wide range of concentrations (10 pM-30 μM). […] Each experiment was performed in duplicate. All incubations were terminated by rapid filtration through UniFilter-96 plates (Packard Instrument Company) and glass filter GF/C) pre-soaked for at least 2 hours in polyethylenimine 0.3%, and using a Filtermate 96 Cell Harvester (Packard Instrument Company). The tubes and filters were then washed 3 times with 1 ml aliquots of cold buffer B. Filters were not dried and soaked in Ultima gold (45 μl/well, Packard Instrument Company) and bound radioactivity was counted by a TopCount Microplate Scintillation Counter (Packard Instrument Company).

T1 sequence (Q923Y8 whole entry): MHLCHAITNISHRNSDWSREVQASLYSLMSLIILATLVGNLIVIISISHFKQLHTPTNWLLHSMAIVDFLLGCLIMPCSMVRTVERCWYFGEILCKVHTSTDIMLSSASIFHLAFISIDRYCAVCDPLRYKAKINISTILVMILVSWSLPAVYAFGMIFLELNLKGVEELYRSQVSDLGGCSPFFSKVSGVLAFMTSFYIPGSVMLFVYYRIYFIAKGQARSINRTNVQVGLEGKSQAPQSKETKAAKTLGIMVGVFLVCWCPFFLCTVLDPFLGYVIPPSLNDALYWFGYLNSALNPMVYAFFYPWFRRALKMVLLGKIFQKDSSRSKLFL

SMILES	Ki	Kd (radioligand of the TAAR1 binding assay, species not stated, read-out: calculated Kd value of the radioligand)
CC1Cc2cc(Cl)ccc2N1Cc1cnc[nH]1 (racemic) [Example 16, (R,S)-5-Chloro-1-(1H-imidazol-4-ylmethyl)-2-methyl-2,3-dihydro-1H-indole]	0.0345 µM	–
Cc1cccc2c1CCN2Cc1cnc[nH]1 [Example 41, 1-(1H-Imidazol-4-ylmethyl)-4-methyl-2,3-dihydro-1H-indole]	0.0104 µM	–
Clc1cccc2c1CCN2Cc1cnc[nH]1 [Example 25, 4-Chloro-1-(1H-imidazol-4-ylmethyl)-2,3-dihydro-1H-indole]	0.0016 µM	–
c1ccc(COc2cccc3c2CCCN3Cc2cnc[nH]2)cc1 [Example 55, 5-Benzyloxy-1-(1H-imidazol-4-ylmethyl)-1,2,3,4-tetrahydro-quinoline]	0.0046 µM	–
CC1CCc2ccccc2N1Cc1cnc[nH]1 (single isomer, unassigned; (-)) [Example 47, (−)-1-(1H-Imidazol-4-ylmethyl)-2-methyl-1,2,3,4-tetrahydro-quinoline]	0.0872 µM	–
c1ccc(COc2ccc3c(c2)N(Cc2cnc[nH]2)CCC3)cc1 [Example 57, 7-Benzyloxy-1-(1H-imidazol-4-ylmethyl)-1,2,3,4-tetrahydro-quinoline]	0.0702 µM	–
Clc1cccc2c1N(Cc1cnc[nH]1)CC2 [Example 32, 7-Chloro-1-(H-imidazol-4-ylmethyl)-2,3-dihydro-1H-indole]	0.0403 µM	–
CC1COc2ccccc2N1Cc1cnc[nH]1 (single isomer, unassigned; (-)) [Example 49, (−)-4-(1H-Imidazol-4-ylmethyl)-3-methyl-3,4-dihydro-2H-benzo[1,4]oxazine]	0.0573 µM	–
c1ccc(Oc2cccc3c2CCCN3Cc2c[nH]cn2)cc1 [Example 61, 1-(1H-Imidazol-4-ylmethyl)-5-phenoxy-1,2,3,4-tetrahydro-quinoline]	0.0027 µM	–
c1ccc2c(c1)OCCN2Cc1cnc[nH]1 [Example 18, 4-(1H-Imidazol-4-ylmethyl)-3,4-dihydro-2H-benzo[1,4]oxazine]	0.0578 µM	–
CC1COc2ccccc2N1Cc1cnc[nH]1 (racemic) [Example 45, (R,S)-4-(1H-Imidazol-4-ylmethyl)-3-methyl-3,4-dihydro-2H-benzo[1,4]oxazine]	0.017 µM	–
CC1CCc2cc(F)ccc2N1Cc1cnc[nH]1 (racemic) [Example 6, (R,S)-6-Fluoro-1-(1H-imidazol-4-ylmethyl)-2-methyl-1,2,3,4-tetrahydro-quinoline]	0.0598 µM	–
COc1cccc2c1N(Cc1cnc[nH]1)CC2 [Example 28, 1-(1H-Imidazol-4-ylmethyl)-7-methoxy-2,3-dihydro-1H-indole]	0.0409 µM	–
CC1Cc2ccccc2N1Cc1cnc[nH]1 (racemic) [Example 1, (R,S)-1-(1H-Imidazol-4-ylmethyl)-2-methyl-2,3-dihydro-1H-indole]	0.0688 µM	–
c1ccc2c(c1)CCCN2Cc1cnc[nH]1 [Example 7, 1-(3H-Imidazol-4-ylmethyl)-1,2,3,4-tetrahydro-quinoline]	0.0264 µM	–
c1ccc2c(c1)CCCCN2Cc1cnc[nH]1 [Example 44, 1-(3H-Imidazol-4-ylmethyl)-2,3,4,5-tetrahydro-1H-benzo[b]azepine]	0.0151 µM	–
CC1CCc2ccccc2N1Cc1cnc[nH]1 (racemic) [Example 3, (R,S)-1-(1H-Imidazol-4-ylmethyl)-2-methyl-1,2,3,4-tetrahydro-quinoline]	0.0258 µM	–
CC1Cc2cc(F)ccc2N1Cc1cnc[nH]1 (racemic) [Example 39, (R,S)-5-Fluoro-1-(1H-imidazol-4-ylmethyl)-2-methyl-2,3-dihydro-1H-indole]	0.0493 µM	–
COc1cccc2c1CCN2Cc1c[nH]cn1 [Example 31, 1-(1H-Imidazol-4-ylmethyl)-4-methoxy-2,3-dihydro-1H-indole]	0.0243 µM	–
c1ccc2c(c1)CCCC2C1=NCCN1 (racemic) [[^3H]-rac-2-(1,2,3,4-tetrahydro-1-naphthyl)-2-imidazoline, reference compound]	–	60 nM
CCc1cccc2c1N(Cc1cnc[nH]1)CC2 [Example 23, 7-Ethyl-1-(1H-imidazol-4-ylmethyl)-2,3-dihydro-1H-indole]	0.0042 µM	–
CC1CN(Cc2cnc[nH]2)c2ccccc21 (racemic) [Example 35, (R,S)-1-(1H-Imidazol-4-ylmethyl)-3-methyl-2,3-dihydro-1H-indole]	0.0323 µM	–

Further lines, with some results ahead:

Ki	SMILES	Kd (radioligand of the TAAR1 binding assay, species not stated, read-out: calculated Kd value of the radioligand)
0.0115 µM	Cc1ccc2c(c1)CCN2Cc1cnc[nH]1 [Example 29, 1-(1H-Imidazol-4-ylmethyl)-5-methyl-2,3-dihydro-1H-indole]	–
0.0133 µM	Cc1ccc2c(c1)N(Cc1cnc[nH]1)CC2 [Example 34, 1-(1H-Imidazol-4-ylmethyl)-6-methyl-2,3-dihydro-1H-indole]	–
0.0277 µM	Fc1ccc2c(c1)CCN2Cc1cnc[nH]1 [Example 36, 5-Fluoro-1-(1H-imidazol-4-ylmethyl)-2,3-dihydro-1H-indole]	–
0.0405 µM	Cc1cccc2c1N(Cc1cnc[nH]1)CC2 [Example 40, 1-(1H-Imidazol-4-ylmethyl)-7-methyl-2,3-dihydro-1H-indole]	–
0.0091 µM	Brc1ccc2c(c1)CCN2Cc1cnc[nH]1 [Example 4, 5-Bromo-1-(1H-imidazol-4-ylmethyl)-2,3-dihydro-1H-indole]	–
0.0389 µM	COc1ccc2c(c1)N(Cc1cnc[nH]1)CC2 [Example 27, 1-(1H-Imidazol-4-ylmethyl)-6-methoxy-2,3-dihydro-1H-indole]	–
0.0538 µM	COc1ccc2c(c1)CCCCN2Cc1cnc[nH]1 [Example 43, 1-(3H-Imidazol-4-ylmethyl)-7-methoxy-2,3,4,5-tetrahydro-1H-benzo[b]azepine]	–
0.003 µM	Brc1ccc2c(c1)CCCN2Cc1cnc[nH]1 [Example 33, 6-Bromo-1-(H-imidazol-4-ylmethyl)-1,2,3,4-tetrahydro-quinoline]	–
0.0834 µM	COc1ccc2c(c1)CCN2Cc1cnc[nH]1 [Example 26, 1-(1H-Imidazol-4-ylmethyl)-5-methoxy-2,3-dihydro-1H-indole]	–
0.0106 µM	Fc1ccc2c(c1)N(Cc1cnc[nH]1)CC2 [Example 37, 6-Fluoro-1-(1H-imidazol-4-ylmethyl)-2,3-dihydro-1H-indole]	–
0.0102 µM	Clc1ccc2c(c1)CCN2Cc1cnc[nH]1 [Example 14, 5-Chloro-1-(1H-imidazol-4-ylmethyl)-2,3-dihydro-1H-indole]	–
0.0144 µM	Fc1cc2c(cc1F)N(Cc1cnc[nH]1)CC2 [Example 38, 5,6-Difluoro-1-(1H-imidazol-4-ylmethyl)-2,3-dihydro-1H-indole]	–
